In patent US20170334899A1, “AMINO-SUBSTITUTED ISOTHIAZOLES” (Bayer Pharma Aktiengesellschaft, priority 2014, published 2017) one finds IC50 data, which are given here for 23 compounds.

Molecules are shown by their SMILES.

The subject of assay [1] is human cervical tumor cell line HeLa (ATCC CCL-2). The assay is described as follows: SAC-Formation - Nocodazole-Induced Assay. The conditions noted are these: Homo sapiens, HeLa, 24 h, HeLa cells, nocodazole 0.1 μg/ml together with test compound, decrease of mitotic cells (phospho-histone H3 Ser10). The class given is cell-based. In a few lines:
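Loss of phospho-histone H3 Ser10-positive cells, counted against Hoechst-stained nuclei by high-content imaging, marked mitotic breakthrough. Compounds (0.005–20 μM, 0.5% DMSO) were co-dosed with 0.1 μg/ml nocodazole onto HeLa cells for 24 h at 37 °C. Curves were fitted with a four-parameter Hill equation.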

Assay [2] concerns HeLa. The assay is described as follows: Proliferation assay (crystal violet), HeLa. The format is cell-based. The conditions noted are these: Homo sapiens, HeLa, 96 h, HeLa cells; 4 days incubation; crystal violet staining; read-out: IC50 inhibition of proliferation, HeLa. In a few lines:
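Crystal violet proliferation readout, 4-day compound incubation, 0.001–10 μM, final DMSO 0.5%. Zero-point plate stained at time of dosing set as 0%, untreated control as 100%; IC50 via 4-parameter fit.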

`Cc1nsc(Nc2cnc(C(F)(F)F)cn2)c1C(=O)Nc1ccc(F)c(OCC2CCCN(CCC(F)(F)F)C2)c1` (stereo not shown) [Example 338, N-(4-fluoro-3-{[1-(3,3,3-trifluoropropyl)piperidin-3-yl]methoxy}phenyl)-3-methyl-5-{[5-(trifluoromethyl)pyrazin-2-yl]amino}-1,2-thiazole-4-carboxamide]: the IC50 in assay [1] amounted to 27 nM; in assay [2] it was 450 nM.

With `Cc1nsc(Nc2cnc(C(F)(F)F)cn2)c1C(=O)Nc1ccc(F)c(OC[C@H]2CCN(CCC(F)(F)F)C2)c1` [Example 399, N-(4-fluoro-3-{[(3S)-1-(3,3,3-trifluoropropyl)pyrrolidin-3-yl]methoxy}phenyl)-3-methyl-5-{[5-(trifluoromethyl)pyrazin-2-yl]amino}-1,2-thiazole-4-carboxamide], the IC50 in assay [1] was 29 nM; in assay [2] it was 650 nM.

In the case of `Cc1nsc(Nc2cnc(C(F)(F)F)cn2)c1C(=O)Nc1ccc(C2CCN(CC(F)F)CC2)nc1` [Example 357, N-{6-[1-(2,2-difluoroethyl)piperidin-4 yl]pyridin-3-yl}-3-methyl-5-{[5-(trifluoromethyl)pyrazin-2-yl]amino}-1,2-thiazole-4-carboxamide], the IC50 in assay [1] amounted to 44 nM; in assay [2], 430 nM.

For the compound `Cc1nsc(Nc2cnc(C(F)(F)F)cn2)c1C(=O)Nc1ccc(O[C@@H]2CCN(CC(F)(F)F)C[C@H]2F)nc1` [Example 367, N-(6-{[(3R,4R)-3-fluoro-1-(2,2,2-trifluoroethyl)piperidin-4-yl]oxy}pyridin-3-yl)-3-methyl-5-{[5-(trifluoromethyl)pyrazin-2-yl]amino}-1,2-thiazole-4-carboxamide], the IC50 in assay [1] is 27 nM; in assay [2], 300 nM.

`Cc1nsc(Nc2cc(C#N)ccn2)c1C(=O)Nc1ccc(OC2CCCN(C(=O)OC(C)(C)C)C2)nc1` (stereo not shown) [Example 34, tert-Butyl 3({5-[({5-[(4-cyanopyridin-2-yl)amino]-3-methyl-1,2-thiazol-4-yl}-carbonyl)amino]pyridin-2-yl}oxy)piperidine-1-carboxylate]: the results for the IC50 in assay [1] and in assay [2] were 280 nM and 3100 nM, respectively.

Consider `Cc1nsc(Nc2cnc3ccccc3n2)c1C(=O)Nc1ccc(OC2CCCNC2)nc1` (stereo not shown) [Example 32, 3-Methyl-N-[6-(piperidin-3-yloxy)pyridin-3-yl]-5-(quinoxalin-2-ylamino)-1,2-thiazole-4-carboxannide], for which the IC50 turned out to be 4000 nM in assay [1] and 8000 nM in assay [2].

Turning to `Cc1nsc(Nc2cnc(C(F)(F)F)cn2)c1C(=O)Nc1ccc(OCCN(C)CCF)nc1` [Example 348, N-(6-{2-[(2-fluoroethyl)(methyl)amino]ethoxy}pyridin-3-yl)-3-methyl-5-{[5-(trifluoromethyl)pyrazin-2-yl]amino}-1,2-thiazole-4-carboxamide], the IC50 in assay [1] came to 310 nM; in assay [2], 1000 nM.

On to `Cc1nsc(Nc2cncc(C(F)(F)F)n2)c1C(=O)Nc1ccc(F)c(OC2CCN(CCC(F)(F)F)CC2)c1` [Example 343, N-(4-fluoro-3-{[1-(3,3,3-trifluoropropyl)piperidin-4-yl]oxy}phenyl)-3-methyl-5-{[6-(trifluoromethyl)pyrazin-2-yl]amino}-1,2-thiazole-4-carboxamide], for which the IC50 was found to be 210 nM in assay [1] and 1400 nM in assay [2].

Consider `Cc1nsc(Nc2cnc(C(F)(F)F)cn2)c1C(=O)Nc1ccc(N2CCN(CC(F)(F)F)CC2)cn1` [Example 373, 3-methyl-N-{5-[4-(2,2,2-trifluoroethyl)piperazin-1-yl]pyridin-2-yl}-5-{[5-(trifluoromethyl)pyrazin-2-yl]amino}-1,2-thiazole-4-carboxamide], for which the IC50 in assay [1] is 260 nM; in assay [2] it was 810 nM.

For the compound `Cc1nsc(Nc2cnc(C(F)(F)F)cn2)c1C(=O)Nc1ccc(OC2CCCN(CCC(F)(F)F)C2)nc1` (stereo not shown) [Example 332, 3-methyl-5-{[5-(trifluoromethyl)pyrazin-2-yl]amino}-N-(6-{[1-(3,3,3-trifluoropropyl)piperidin-3-yl]oxy}pyridin-3-yl)-1,2-thiazole-4-carboxamide], the results for the IC50 in assay [1] and in assay [2] were 7.1 nM and 350 nM, respectively.

As to `Cc1nsc(Nc2cnc(C(F)(F)F)cn2)c1C(=O)Nc1ccc(O[C@H]2CCN(CCC(F)(F)F)C[C@@H]2F)nc1` [Example 364, N-(6-{[(3S,4S)-3-fluoro-1-(3,3,3-trifluoropropyl)piperidin-4-yl]oxy}pyridin-3-yl)-3-methyl-5-{[5-(trifluoromethyl)pyrazin-2-yl]amino}-1,2-thiazole-4-carboxamide], the IC50 in assay [1] was 12 nM; in assay [2], 290 nM.

As to `Cc1nsc(Nc2cnc3ccccc3n2)c1C(=O)Nc1ccc(OC2CCCN(C(=O)OC(C)(C)C)C2)nc1` (stereo not shown) [Example 31, tert-Butyl 3-{[5-({[3-methyl-5-(quinoxalin-2-ylamino)-1,2-thiazol-4-yl]carbonyl}-amino)pyridin-2-yl]oxy}piperidine-1-carboxylate], the IC50 in assay [1] is 220 nM; in assay [2] it was 1200 nM.

Turning to `Cc1nsc(Nc2cnc(C(F)(F)F)cn2)c1C(=O)Nc1ccc(OC[C@@H]2CCCN(CCC(F)(F)F)C2)nc1` [Example 377, 3-methyl-5-{[5-(trifluoromethyl)pyrazin-2-yl]amino}-N-(6-{[(3R)-1-(3,3,3-trifluoropropyl)piperidin-3-yl]methoxy}pyridin-3-yl)-1,2-thiazole-4-carboxamide], the IC50 in assay [1] was 40 nM; in assay [2], 370 nM.

In the case of `Cc1nsc(Nc2cnc(C(F)(F)F)cn2)c1C(=O)Nc1ccc(O[C@@H]2CCCN(CCC(F)(F)F)C2)nc1` [Example 387, 3-methyl-5-{[5-(trifluoromethyl)pyrazin-2-yl]amino}-N-(6-{[(3R)-1-(3,3,3-trifluoropropyl)piperidin-3-yl]oxy}pyridin-3-yl)-1,2-thiazole-4-carboxamide], the IC50 in assay [1] stood at 70 nM; in assay [2], 400 nM.

`Cc1nsc(Nc2cnc(C(F)(F)F)cn2)c1C(=O)Nc1ccc(OC2CCCN(CC(F)(F)F)C2)nc1` (stereo not shown) [Example 331, 3-methyl-N-(6-{[1-(2,2,2-trifluoroethyl)piperidin-3-yl]oxy}pyridin-3-yl)-5-{[5-(trifluoromethyl)pyrazin-2-yl]amino}-1,2-thiazole-4-carboxamide]: the IC50 stood at 6.2 nM in assay [1] and 260 nM in assay [2].

For the compound `Cc1nsc(Nc2cnc(C(F)(F)F)cn2)c1C(=O)Nc1ccc(F)c(OC[C@H]2CCN(CC(F)F)C2)c1` [Example 397, N-(3-{[(3S)-1-(2,2-difluoroethyl)pyrrolidin-3-yl]methoxy}-4-fluorophenyl)-3-methyl-5-{[5-(trifluoromethyl)pyrazin-2-yl]amino}-1,2-thiazole-4-carboxamide], the figures for the IC50 in assay [1] and in assay [2] were 31 nM and 830 nM, respectively.

On to `Cc1nsc(Nc2cnc(C(F)(F)F)cn2)c1C(=O)Nc1ccc(O[C@@H]2CCN(CC(F)F)C2)nc1` [Example 379, N-(6-{[(3R)-1-(2,2-difluoroethyl)pyrrolidin-3-yl]oxy}pyridin-3-yl)-3-methyl-5-{[5-(trifluoromethyl)pyrazin-2-yl]amino}-1,2-thiazole-4-carboxamide], for which the values for the IC50 in assay [1] and in assay [2] were 34 nM and 620 nM, respectively.

Consider `Cc1nsc(Nc2cnc(C(F)(F)F)cn2)c1C(=O)Nc1ccc(OCC2CCN(CC(F)(F)F)CC2)nc1` [Example 346, 3-methyl-N-(6-{[1-(2,2,2-trifluoroethyl)piperidin-4-yl]methoxy}pyridin-3-yl)-5-{[5-(trifluoromethyl)pyrazin-2-yl]amino}-1,2-thiazole-4-carboxamide], for which the IC50 in assay [1] worked out at 33 nM; in assay [2], 270 nM.

As for `CCCN1CC[C@@H](Oc2ccc(NC(=O)c3c(C)nsc3Nc3cnc(C(F)(F)F)cn3)cn2)[C@H](F)C1` [Example 371, N-(6-{[(3R,4R)-3-fluoro-1-propylpiperidin-4-yl]oxy}pyridin-3-yl)-3-methyl-5-{[5-(trifluoromethyl)pyrazin-2-yl]amino}-1,2-thiazole-4-carboxamide], the IC50 is 27 nM in assay [1] and 320 nM in assay [2].

With `Cc1nsc(Nc2cnc(C(F)(F)F)cn2)c1C(=O)Nc1ccc(F)c(OCC2CCCN(CCF)C2)c1` (stereo not shown) [Example 336, N-(4-fluoro-3-{[1-(2-fluoroethyl)piperidin-3-yl]methoxy}phenyl)-3-methyl-5-{[5-(trifluoromethyl)pyrazin-2-yl]amino}-1,2-thiazole-4-carboxamide], the IC50 in assay [1] came out at 49 nM; in assay [2] it was 390 nM.

Turning to `Cc1nsc(Nc2cnc(C(F)(F)F)cn2)c1C(=O)Nc1ccc(O[C@H]2CCCN(CC(F)F)C2)nc1` [Example 388, N-(6-{[(3S)-1-(2,2-difluoroethyl)piperidin-3-yl]oxy}pyridin-3-yl)-3-methyl-5-{[5-(trifluoromethyl)pyrazin-2-yl]amino}-1,2-thiazole-4-carboxamide], the IC50 in assay [1] was determined as 37 nM; in assay [2] it was 370 nM.

On to `Cc1nsc(Nc2ccc(C#N)cn2)c1C(=O)Nc1ccc(OC2CCN(CCF)CC2)nc1` [Example 29, 5-[(5-Cyanopyridin-2-yl)amino]-N-(6-{[1-(2-fluoroethyl)piperidin-4-yl]oxy}pyridin-3-yl)-3-methyl-1,2-thiazole-4-carboxamide], for which the IC50 in assay [1] was found to be 16000 nM; in assay [2], 10000 nM.

In the case of `Cc1nsc(Nc2cnc(C(F)(F)F)cn2)c1C(=O)Nc1ccc(O[C@H]2CCN(CC(F)(F)F)C[C@@H]2F)nc1` [Example 363, N-(6-{[(3S,4S)-3-fluoro-1-(2,2,2-trifluoroethyl)piperidin-4-yl]oxy}pyridin-3-yl)-3-methyl-5-{[5-(trifluoromethyl)pyrazin-2-yl]amino}-1,2-thiazole-4-carboxamide], the IC50 is 110 nM in assay [1] and 340 nM in assay [2].
